In brackets after ≈: the same amount, converted by molar mass.
How the values were obtained:
cotton [1] = assay: Upland foliar application test (Test 3), crop injury; type: in vivo; conditions: 30 g ai/a, foliar spray at 2-3 leaves, 30th day
Description: (§1) Resin-made 1/10000-are pots were filled with the soil of an upland field. Redroot pigweed, common lambsquarters, foxtail meadow, johnsongrass, barnyardgrass, green foxtail, large crabgrass, soybean, peanut and cotton were separately seeded and were allowed to germinate in a green house. When each plant grew to the stage of 2-3 leaves, an emulsion formulated from a predetermined amount of each test compound in a similar manner to the method described in Formulation Example 11 was diluted with water to a predetermined dilution rate and then sprayed at an application rate equal to 5 l per are onto the foliage of each plant by means of a pressure-operated ULV (ultra low volume) sprayer. Influence to the crops and weeds were observed on the 30th day after the spray of the herbicides. The results are shown in Table 4 in which the degree of damages of each test plant and the degree of injury to each crop are shown in a similar manner to Test 2.

soybean [2] = assay: as above; type: in vivo; conditions: 30 g ai/a, foliar spray at 2-3 leaves, 30th day
Description: as §1

peanut [3] = assay: as above; type: in vivo; conditions: 30 g ai/a, foliar spray at 2-3 leaves, 30th day
Description: as §1

[4] = system: ALS (acetolactate syntase); assay: ALS enzyme assay (Test 1); type: biochemical, barnyardgrass; conditions: 1,000 ppm (0.5 mg/0.5 ml)
Description: To determine the selectivity in enzyme level between crops and weeds, and ALS enzyme assay was conducted using pea as a representative of broadleaf crops and barnyardgrass as a representative of narrowleaf weeds.
After seeds of pea and barnyardgrass were allowed to germinate at 25° C. for 8-14 days in a dark place, partially-purified suspensions (Suspensions A) of acetolactate syntase were separately obtained from seedlings in accordance with the method described in the literature, Plant Physiology, 75, 827-831.
In a test tube, 0.5 mg of one of test compounds was weighed, followed by the addition of 0.15 ml of a 20 mM K2 HPO4 solution and 0.25 ml of a reaction substrate medium which consisted of 40 mM of K2 HPO4, 40 mM of sodium pyruvate, 1 mM of TPP, 1 mM of MgCl2 and 20 μM of FAD so that 0.4 ml of a reaction solution (Solution B) was prepared. Added to 0.4 ml of Solution B was 0.1 ml of suspension A. After the resultant mixture was shaken for 1 hour in a thermostat water bath controlled at 30° C., 50 μl of 6N sulfuric acid were added to terminate the reaction.
Next, the reaction-terminated liquid mixture was transferred into a thermostat water bath controlled at 60° C. and was heated for 15 minutes. Thereafter, 0.5 ml of a 0.5% creatine solution and 0.5 ml of a 5% alkaline α-naphthol solution were added, and the resultant mixture was maintained at 60° C. for 15 minutes. As a result, the test solution developed a pink-red color. After the above operation, the absorbance of the test solution at 525 nm was measured by a spectrophotometer (Absorbance 1 of Test Compound).
On the other hand, the absorbance (Absorbance 2 of Blank) of a solution obtained by subjecting a portion of Solution B, said portion being free of the test compound, to the above operation and the absorbance (Absorbance 3 of sulfuric acid terminated) of another solution obtained by subjecting another portion of Solution B, said portion containing 50 μl of 6N sulfuric acid as a test compound, were measured at the same time. Based on the values of the respective measurements, the enzyme assay at 1,000 ppm (0.5 mg/0.5 ml) of each compound was determined. [formula]

rice = assay: Treatment of soil under submerged condition, post-emergence (Test 5), injury; type: in vivo; conditions: 30 g ai/a granule, 30 days later
Description: (§2) 1/5000-are Wagner pots were filled with soil. Seeds or tubers of barnyardgrass, Monochoria vaginalis, bulrush, Sagittaria pygmaea, Cyperus serroylnus and Eleocharis kuroguwai were seeded or planted under submerged condition. Two pairs of rice seedlings (2-3 leaf stage), which had been reared in advance, were transplanted to each pot and were allowed to grow in a green house. Each pair consisted of two rice seedlings. When the barnyardgrass grew to two-leaf stage, each pot was treated with a granule which had been prepared by processing a predetermined amount of the test composition in accordance with a similar method to the method described in Formulation Example 9. The state of emergence of weeds and the state of injury of rice were observed 30 days later.
(§3) In the table, the degrees of damages of the test plants and the degrees of injury of the rice are shown in a similar manner to Example 2.

barnyardgrass = assay: Treatment of soil under submerged condition, post-emergence (Test 5); type: in vivo; conditions: 30 g ai/a granule, post-emergence (barnyardgrass two-leaf stage), 30 days later
Description: as §2, §3

Sagittaria pygmaea = assay: as above; type: in vivo; conditions: 30 g ai/a granule, 30 days later
Description: as §2, §3

bulrush = assay: as above; type: in vivo; conditions: 30 g ai/a granule, 30 days later
Description: as §2, §3

narrowleaf waterplantain = assay: Petri dish test (Test 6); type: in vivo; conditions: 336 h; seeds on filter paper, 25° C., 14 days; read-out: I80 (ppm)
Description: A filter paper was placed in each glass-made Petri dish having a diameter of 9 cm. A compound dissolved in acetone was added in a predetermined amount. The filter paper was then dried in air to remove acetone. Seeds of narrowleaf waterplantain were placed on the filter paper and 10 ml of water were poured into the Petri dish. The seeds were allowed to grow at 25° C. in a bright room. Fourteen days later, the state of growth of narrowleaf water-plantain was observed.
In the table, the degree of damages of the test plant was determined by comparing the state of growth of the plant with that of the plant in an untreated group and is shown in accordance with the following standard: […]

cotton [5] = assay: Upland soil application test (Test 2), crop injury; type: in vivo; conditions: 30 g ai/a, soil spray before emergence, 30 days later
Description: (§4) Resin-made 1/2500-are pots were filled with the soil of an upland field. After they were fertilized, soybean, peanut and cotton were seeded and 2-3 cm soil covering was applied. Seeds of redroot pigweed, common lambsquarters, barnyardgrass, green foxtail, large crabgrass, foxtail meadow and johnsongrass had been uniformly mixed with the soil. They were allowed to germinate in a green house. One day later (before emergence of weeds), a wettable powder prepared from a predetermined amount of each test compound in a similar manner to the method described in Formulation Example 1 was diluted with water and then sprayed evenly at an application rate equal to 10 l per are onto the surface of the soil by means of a pressure-operated ULV (ultra low volume) sprayer. Influence to the crops and weeds were observed 30 days later. The results are shown in Table 3, in which the degree of damages of each test plant and the degree of injury to each crop were determined by comparing the air-dried weights of the test plant and crop with those of the corresponding plant and crop in untreated pots and are shown in accordance with the following standard: […]

soybean [6] = assay: Upland soil application test (Test 2), crop injury; type: in vivo; conditions: 30 g ai/a, soil spray before emergence, 30 days later
Description: as §4

peanut [7] = assay: Upland soil application test (Test 2), crop injury; type: in vivo; conditions: 30 g ai/a, soil spray before emergence, 30 days later
Description: as §4

SMILES | Injury Cotton (cotton [1]) | Injury Soybean (soybean [2]) | Injury Peanut (peanut [3]) | Inhibitory activity (%) Barnyardgrass [4] | Injury Rice (rice) | Herbicidal effects Barnyardgrass (barnyardgrass) | Herbicidal effects Sagittaria Pygmaea (Sagittaria pygmaea) | Herbicidal effects Bulrush (bulrush) | IC80 (narrowleaf waterplantain) | Injury Cotton (cotton [5]) | Injury Soybean (soybean [6]) | Injury Peanut (peanut [7])
COc1cc(OC)nc(Oc2ccccc2C=NOCC=Cc2cccc(C)c2)n1 [Compound No. 34, 0-(3-methylcinnamyl)-2-(4,6-dimethoxy-2-pyrimidinyloxy)benzaldoxime] | 0 (91-100 (No damages)) | 0 (91-100 (No damages)) | 0 (91-100 (No damages)) | 91% | 1 (71-90 (Slight damages)) | 5 (0-5 (Death)) | 3 (11-40 (Medium damages)) | 4 (6-10 (Severe damages)) | 2 µg/mL (≈ 4.93 µM) | 0 (91-100 (No damages)) | 0 (91-100 (No damages)) | 0 (91-100 (No damages))
COc1cc(OC)nc(Oc2ccccc2C=NOCC=Cc2ccccc2C)n1 [Compound No. 39] | 0 (91-100 (No damages)) | 0 (91-100 (No damages)) | 0 (91-100 (No damages)) | 92% | 0 (91-100 (No damages)) | 5 (0-5 (Death)) | 4 (6-10 (Severe damages)) | 4 (6-10 (Severe damages)) | 2 µg/mL (≈ 4.93 µM) | 0 (91-100 (No damages)) | 0 (91-100 (No damages)) | 0 (91-100 (No damages))
C=C(C)CON=Cc1ccccc1Oc1nc(OC)cc(OC)n1 [compound 5] | 0 (91-100 (No damages)) | 0 (91-100 (No damages)) | 0 (91-100 (No damages)) | 64% | 0 (91-100 (No damages)) | 5 (0-5 (Death)) | 5 (0-5 (Death)) | 5 (0-5 (Death)) | 17 µg/mL (≈ 51.6 µM) | 0 (91-100 (No damages)) | 0 (91-100 (No damages)) | 0 (91-100 (No damages))
COc1cc(OC)nc(Oc2ccccc2C=NOC(C)C)n1 [compound 6] | 0 (91-100 (No damages)) | 0 (91-100 (No damages)) | 0 (91-100 (No damages)) | 17% | 0 (91-100 (No damages)) | 4 (6-10 (Severe damages)) | 3 (11-40 (Medium damages)) | 4 (6-10 (Severe damages)) | 40 µg/mL (≈ 126 µM) | 0 (91-100 (No damages)) | 0 (91-100 (No damages)) | 0 (91-100 (No damages))

From patent US5053070A, “Pyrimidine derivatives, preparation processes thereof, herbicide containing the same, and herbicidal compositions containing the same along with other active ingredient” (Mitsui Toatsu Chemicals, Incorporated, priority 1988, dated 1991)
